{
  "source": "patent US9353082B2",
  "about": "“Pharmaceutical compounds” (BIAL—PORTELA & CA, S.A., priority 2008, dated 2016)",
  "data": [
    {"target": "T1, FAAH (Rattus norvegicus, UniProt P97612)", "T1 construct": "Frozen brains (without cerebellum) from Wistar rats were used; from tissue; host or cells: Wistar rat brain (without cerebellum), washed membrane pellets", "T1 sequence (P97612 1-579)": "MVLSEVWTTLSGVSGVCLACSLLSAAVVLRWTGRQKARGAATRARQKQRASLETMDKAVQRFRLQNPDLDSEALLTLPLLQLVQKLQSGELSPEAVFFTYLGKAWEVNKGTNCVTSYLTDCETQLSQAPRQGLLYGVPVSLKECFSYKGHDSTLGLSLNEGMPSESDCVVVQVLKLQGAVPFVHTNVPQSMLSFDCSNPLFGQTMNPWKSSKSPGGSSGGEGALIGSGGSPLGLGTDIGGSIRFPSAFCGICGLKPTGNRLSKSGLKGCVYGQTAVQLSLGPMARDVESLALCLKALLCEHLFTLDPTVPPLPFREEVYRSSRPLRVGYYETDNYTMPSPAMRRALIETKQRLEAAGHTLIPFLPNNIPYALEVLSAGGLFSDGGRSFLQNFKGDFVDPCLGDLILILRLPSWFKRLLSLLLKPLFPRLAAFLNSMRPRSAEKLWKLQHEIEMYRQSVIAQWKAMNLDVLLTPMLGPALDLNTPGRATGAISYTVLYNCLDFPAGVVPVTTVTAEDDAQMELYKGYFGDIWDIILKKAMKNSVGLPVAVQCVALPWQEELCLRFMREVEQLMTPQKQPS", "experiment": "In vitro FAAH activity in rat brain membranes, 3H-AEA substrate, % of control", "assay_type": "biochemical, Wistar rats", "settings": "100 nM test compound, low value = strong inhibitor", "summary_of_the_method": "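FAAH activity measured as 3H-ethanolamine released from 2 μM [3H]AEA over 10 min by rat brain membrane preparation, after 15 min 37 °C preincubation with test compound at 10 or 0.1 μM. Charcoal-separated supernatant scintillation-counted; values expressed as % of control minus no-protein blank.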", "values": [
      {"compound": "O=C(N1CCc2ccccc2C1)n1cnc(-c2ccccc2)c1", "note": "[Compound 184, (3,4-dihydroisoquinolin-2(1H)-yl)(4-phenyl-1H-imidazol-1-yl)methanone]", "In Vitro FAAH activity, 100 nM": "30.2 % of control"},
      {"compound": "O=C(N1CCc2ccccc2C1)n1cnc(-c2ccc(Cl)cc2)n1", "note": "[Compound 185, (3-(4-chlorophenyl)-1H-1,2,4-triazol-1-yl)(3,4-dihydroisoquinolin-2(1H)-yl)methanone]", "In Vitro FAAH activity, 100 nM": "71.8 % of control"},
      {"compound": "CN(Cc1ccccc1)C(=O)n1cnc(-c2ccc3ccccc3c2)n1", "note": "[Compound 190, N-benzyl-N-methyl-3-(naphthalen-2-yl)-1H-1,2,4-triazole-1-carboxamide]", "In Vitro FAAH activity, 100 nM": "20.7 % of control"},
      {"compound": "CN(C(=O)n1cnc(-c2cccc3ccccc23)n1)c1ccccc1", "note": "[Compound 192, N-methyl-3-(naphthalen-1-yl)-N-phenyl-1H-1,2,4-triazole-1-carboxamide]", "In Vitro FAAH activity, 100 nM": "64.6 % of control"},
      {"compound": "C[C@@H]1CN(C(=O)n2nnc3ccccc32)C[C@@H](C)O1", "note": "[Compound 193, (1H-benzo[d][1,2,3]triazol-1-yl)((2R,6R)-2,6-dimethylmorpholino)methanone]", "In Vitro FAAH activity, 100 nM": "110.2 % of control"},
      {"compound": "C[C@@H]1CN(C(=O)n2nnc3ccccc32)C[C@H](C)O1", "note": "[Compound 194, (1H-benzo[d][1,2,3]triazol-1-yl)((2S,6R)-2,6-dimethylmorpholino)methanone]", "In Vitro FAAH activity, 100 nM": "64.2 % of control"},
      {"compound": "O=C(N1CCC(CCCc2ccccc2)CC1)n1cnc(-c2ccc(Cl)cc2)c1", "note": "[Compound 197, (4-(4-chlorophenyl)-1H-imidazol-1-yl)(4-(3-phenylpropyl)piperidin-1-yl)methanone]", "In Vitro FAAH activity, 100 nM": "0.3 % of control"},
      {"compound": "O=C(N1CCC2(CC1)OCCO2)n1cnc(-c2ccc(Cl)c(Cl)c2)c1", "note": "[Compound 198, (4-(3,4-dichlorophenyl)-1H-imidazol-1-yl)(1,4-dioxa-8-azaspiro[4.5]decan-8-yl)methanone]", "In Vitro FAAH activity, 100 nM": "33 % of control"},
      {"compound": "CN(C(=O)n1cnc(-c2cccc(OCCN3CCNCC3)c2)c1)c1ccccc1.Cl.Cl", "note": "[Compound 200, N-methyl-N-phenyl-4-(3-(2-(piperazin-1-yl)ethoxy)phenyl)-1H-imidazole-1-carboxamide dihydrochloride]", "In Vitro FAAH activity, 100 nM": "100.1 % of control"},
      {"compound": "O=C(N1CCN(C2CCCCC2)CC1)n1cnc(-c2ccc(F)c(F)c2)c1", "note": "[Compound 201, (4-cyclohexylpiperazin-1-yl)(4-(3,4-difluorophenyl)-1H-imidazol-1-yl)methanone]", "In Vitro FAAH activity, 100 nM": "0.3 % of control"},
      {"compound": "CCN(CCOCc1ccccc1)C(=O)n1nnc2ccccc21", "note": "[Compound 202, N-(2-(benzyloxy)ethyl)-N-ethyl-1H-benzo[d][1,2,3]triazole-1-carboxamide]", "In Vitro FAAH activity, 100 nM": "0.1 % of control"},
      {"compound": "O=C(N1CCC2(CC1)OCCO2)n1cnc(-c2ccc(Cl)cc2)n1", "note": "[Compound 204, (3-(4-chlorophenyl)-1H-1,2,4-triazol-1-yl)(1,4-dioxa-8-azaspiro[4.5]decan-8-yl)methanone]", "In Vitro FAAH activity, 100 nM": "15.8 % of control"},
      {"compound": "COc1ccc(-c2ncn(C(=O)N3CCC(CCCc4ccccc4)CC3)n2)cc1", "note": "[Compound 205, (3-(4-methoxyphenyl)-1H-1,2,4-triazol-1-yl)(4-(3-phenylpropyl)piperidin-1-yl)methanone]", "In Vitro FAAH activity, 100 nM": "0.2 % of control"},
      {"compound": "O=C(N1CCN(c2ccccc2)CC1)n1cnc(-c2cccc3ccccc23)n1", "note": "[Compound 206, (3-(naphthalen-1-yl)-1H-1,2,4-triazol-1-yl)(4-phenylpiperazin-1-yl)methanone]", "In Vitro FAAH activity, 100 nM": "3.3 % of control"},
      {"compound": "NC(=O)c1ccc(Oc2cccc(-c3ncn(C(=O)N4CCc5ccccc5C4)n3)c2)cc1", "note": "[Compound 207, 4-(3-(1-(1,2,3,4-tetrahydroisoquinoline-2-carbonyl)-1H-1,2,4-triazol-3-yl)phenoxy)benzamide]", "In Vitro FAAH activity, 100 nM": "31.6 % of control"}
    ]}
  ]
}
